Assay results taken from PubChem BioAssay (NCI).
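Exposure lasted 48 hours, with cells grown in 96-well plates and compounds tested at five concentrations. Abbreviation: GI50, concentration required for 50% inhibition of growth. TGI is the concentration that stops growth completely.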

What was measured:
Test in all cases: inhibition of tumour cell growth, NCI panel, 48 h
DU-145 prostate = test system: DU-145 prostate
UO-31 renal = test system: UO-31 renal
A549 NSCLC = test system: A549 NSCLC
UACC-257 melanoma = test system: UACC-257 melanoma
HCT-116 colon = test system: HCT-116 colon
NCI-H226 lung = test system: NCI-H226 lung
RPMI-8226 leukemia = test system: RPMI-8226 leukemia
OVCAR-5 ovarian = test system: OVCAR-5 ovarian
NCI-H23 lung = test system: NCI-H23 lung
SF-539 CNS = test system: SF-539 CNS
HCC-2998 colon = test system: HCC-2998 colon
NCI/ADR-RES ovarian = test system: NCI/ADR-RES ovarian
OVCAR-8 ovarian = test system: OVCAR-8 ovarian
NCI-H460 lung = test system: NCI-H460 lung
MALME-3M melanoma = test system: MALME-3M melanoma
MDA-MB-435 = test system: MDA-MB-435
EKVX NSCLC = test system: EKVX NSCLC
LOX IMVI melanoma = test system: LOX IMVI melanoma
SN12C renal = test system: SN12C renal
HOP-92 NSCLC = test system: HOP-92 NSCLC
SW-620 colon = test system: SW-620 colon
NCI-H522 lung = test system: NCI-H522 lung
TK-10 renal = test system: TK-10 renal
MDA-MB-231 breast = test system: MDA-MB-231 breast
SK-MEL-5 melanoma = test system: SK-MEL-5 melanoma
A498 renal = test system: A498 renal
ACHN renal = test system: ACHN renal
T-47D breast = test system: T-47D breast
SK-MEL-2 melanoma = test system: SK-MEL-2 melanoma
M14 melanoma = test system: M14 melanoma
SK-OV-3 ovarian = test system: SK-OV-3 ovarian
HS 578T breast = test system: HS 578T breast
CCRF-CEM leukemia = test system: CCRF-CEM leukemia
OVCAR-3 ovarian = test system: OVCAR-3 ovarian
PC-3 prostate = test system: PC-3 prostate
SF-268 CNS = test system: SF-268 CNS
SNB-75 CNS = test system: SNB-75 CNS
UACC-62 melanoma = test system: UACC-62 melanoma
IGROV1 ovarian = test system: IGROV1 ovarian
HT29 colon = test system: HT29 colon
KM12 colon = test system: KM12 colon
MCF7 breast = test system: MCF7 breast
HCT-15 colon = test system: HCT-15 colon
RXF 393 renal = test system: RXF 393 renal
CAKI-1 renal = test system: CAKI-1 renal
OVCAR-4 ovarian = test system: OVCAR-4 ovarian
BT-549 breast = test system: BT-549 breast
SK-MEL-28 melanoma = test system: SK-MEL-28 melanoma
HOP-62 NSCLC = test system: HOP-62 NSCLC
SR leukemia = test system: SR leukemia
U251 CNS = test system: U251 CNS
786-0 renal = test system: 786-0 renal
K-562 leukemia = test system: K-562 leukemia
SNB-19 CNS = test system: SNB-19 CNS
SF-295 CNS = test system: SF-295 CNS
COLO 205 colon = test system: COLO 205 colon

[N-]=[N+]=NCCCn1c2c(c3ccc([N+](=O)[O-])cc3c1=O)C(=O)c1cc(-c3ccccc3)ccc1-2
GI50 (DU-145 prostate): > 100 µM
TGI (DU-145 prostate): > 100 µM
GI50 (UO-31 renal): > 100 µM
TGI (UO-31 renal): > 100 µM
GI50 (A549 NSCLC): > 100 µM
TGI (A549 NSCLC): > 100 µM
GI50 (UACC-257 melanoma): > 100 µM
TGI (UACC-257 melanoma): > 100 µM
GI50 (HCT-116 colon): > 100 µM
TGI (HCT-116 colon): > 100 µM
GI50 (NCI-H226 lung): > 100 µM
TGI (NCI-H226 lung): > 100 µM
GI50 (RPMI-8226 leukemia): > 100 µM
TGI (RPMI-8226 leukemia): > 100 µM
GI50 (OVCAR-5 ovarian): > 100 µM
TGI (OVCAR-5 ovarian): > 100 µM
GI50 (NCI-H23 lung): > 100 µM
TGI (NCI-H23 lung): > 100 µM
GI50 (SF-539 CNS): > 100 µM
TGI (SF-539 CNS): > 100 µM
GI50 (HCC-2998 colon): > 100 µM
TGI (HCC-2998 colon): > 100 µM
GI50 (NCI/ADR-RES ovarian): > 100 µM
TGI (NCI/ADR-RES ovarian): > 100 µM
GI50 (OVCAR-8 ovarian): > 100 µM
TGI (OVCAR-8 ovarian): > 100 µM
GI50 (NCI-H460 lung): > 100 µM
TGI (NCI-H460 lung): > 100 µM
GI50 (MALME-3M melanoma): > 100 µM
TGI (MALME-3M melanoma): > 100 µM
GI50 (MDA-MB-435): > 100 µM
TGI (MDA-MB-435): > 100 µM
GI50 (EKVX NSCLC): > 100 µM
TGI (EKVX NSCLC): > 100 µM
GI50 (LOX IMVI melanoma): > 100 µM
TGI (LOX IMVI melanoma): > 100 µM
GI50 (SN12C renal): > 100 µM
TGI (SN12C renal): > 100 µM
GI50 (HOP-92 NSCLC): > 100 µM
TGI (HOP-92 NSCLC): > 100 µM
GI50 (SW-620 colon): > 100 µM
TGI (SW-620 colon): > 100 µM
GI50 (NCI-H522 lung): > 100 µM
TGI (NCI-H522 lung): > 100 µM
GI50 (TK-10 renal): > 100 µM
TGI (TK-10 renal): > 100 µM
GI50 (MDA-MB-231 breast): > 100 µM
TGI (MDA-MB-231 breast): > 100 µM
GI50 (SK-MEL-5 melanoma): 89 µM
TGI (SK-MEL-5 melanoma): > 100 µM
GI50 (A498 renal): > 100 µM
TGI (A498 renal): > 100 µM
GI50 (ACHN renal): > 100 µM
TGI (ACHN renal): > 100 µM
GI50 (T-47D breast): > 100 µM
TGI (T-47D breast): > 100 µM
GI50 (SK-MEL-2 melanoma): > 100 µM
TGI (SK-MEL-2 melanoma): > 100 µM
GI50 (M14 melanoma): > 100 µM
TGI (M14 melanoma): > 100 µM
GI50 (SK-OV-3 ovarian): > 100 µM
TGI (SK-OV-3 ovarian): > 100 µM
GI50 (HS 578T breast): 56.5 µM
TGI (HS 578T breast): > 100 µM
GI50 (CCRF-CEM leukemia): > 100 µM
TGI (CCRF-CEM leukemia): > 100 µM
GI50 (OVCAR-3 ovarian): > 100 µM
TGI (OVCAR-3 ovarian): > 100 µM
GI50 (PC-3 prostate): > 100 µM
TGI (PC-3 prostate): > 100 µM
GI50 (SF-268 CNS): > 100 µM
TGI (SF-268 CNS): > 100 µM
GI50 (SNB-75 CNS): 43.3 µM
TGI (SNB-75 CNS): > 100 µM
GI50 (UACC-62 melanoma): > 100 µM
TGI (UACC-62 melanoma): > 100 µM
GI50 (IGROV1 ovarian): > 100 µM
TGI (IGROV1 ovarian): > 100 µM
GI50 (HT29 colon): > 100 µM
TGI (HT29 colon): > 100 µM
GI50 (KM12 colon): > 100 µM
TGI (KM12 colon): > 100 µM
GI50 (MCF7 breast): > 100 µM
TGI (MCF7 breast): > 100 µM
GI50 (HCT-15 colon): > 100 µM
TGI (HCT-15 colon): > 100 µM
GI50 (RXF 393 renal): > 100 µM
TGI (RXF 393 renal): > 100 µM
GI50 (CAKI-1 renal): > 100 µM
TGI (CAKI-1 renal): > 100 µM
GI50 (OVCAR-4 ovarian): > 100 µM
TGI (OVCAR-4 ovarian): > 100 µM
GI50 (BT-549 breast): > 100 µM
TGI (BT-549 breast): > 100 µM
GI50 (SK-MEL-28 melanoma): > 100 µM
TGI (SK-MEL-28 melanoma): > 100 µM
GI50 (HOP-62 NSCLC): > 100 µM
TGI (HOP-62 NSCLC): > 100 µM
GI50 (SR leukemia): 37.2 µM
TGI (SR leukemia): > 100 µM
GI50 (U251 CNS): > 100 µM
TGI (U251 CNS): > 100 µM
GI50 (786-0 renal): > 100 µM
TGI (786-0 renal): > 100 µM
TGI (K-562 leukemia): > 100 µM
GI50 (SNB-19 CNS): > 100 µM
TGI (SNB-19 CNS): > 100 µM
GI50 (SF-295 CNS): > 100 µM
TGI (SF-295 CNS): > 100 µM
GI50 (COLO 205 colon): > 100 µM
TGI (COLO 205 colon): > 100 µM
